Data taken from BindingDB's records for doi:10.7270/Q2DV1HH8 (Burnham Center For Chemical Genomics, 2012).
“And” between values parts separate entries of the source, which are not always exact repeats. Equal entries are not always repeated. Structures can show the parent of a compound that is named as a salt. Numbered stars: 1 amine (or outer) side, 2 acyl side, 3 side chain; on linkers, the order of the positions; unused ones are H or OH. Bridge positions count the residues as written; N and C are the ends. Square brackets hold non-standard residues; d marks the D form. Peptide text beside a SMILES is read from it. ξ: configuration not given here. X1 = CC[C@H](CCC[C@@H](O)[C@@H](C)C(=O)O[C@H](C)[C@@H](C)C/C=C(C)\C(=C/C(=O)[*:1])OC)O[*:2]; NMeξIle = CC[C@H](C)C(NC)C(=O)O; NMeV = CN[C@H](C(=O)O)C(C)C; NMeS = CN[C@@H](CO)C(=O)O

The compounds below were run against T1, Protein skinhead-1 (Caenorhabditis elegans, UniProt P34707). Details: not given.
T1 sequence (P34707 whole entry): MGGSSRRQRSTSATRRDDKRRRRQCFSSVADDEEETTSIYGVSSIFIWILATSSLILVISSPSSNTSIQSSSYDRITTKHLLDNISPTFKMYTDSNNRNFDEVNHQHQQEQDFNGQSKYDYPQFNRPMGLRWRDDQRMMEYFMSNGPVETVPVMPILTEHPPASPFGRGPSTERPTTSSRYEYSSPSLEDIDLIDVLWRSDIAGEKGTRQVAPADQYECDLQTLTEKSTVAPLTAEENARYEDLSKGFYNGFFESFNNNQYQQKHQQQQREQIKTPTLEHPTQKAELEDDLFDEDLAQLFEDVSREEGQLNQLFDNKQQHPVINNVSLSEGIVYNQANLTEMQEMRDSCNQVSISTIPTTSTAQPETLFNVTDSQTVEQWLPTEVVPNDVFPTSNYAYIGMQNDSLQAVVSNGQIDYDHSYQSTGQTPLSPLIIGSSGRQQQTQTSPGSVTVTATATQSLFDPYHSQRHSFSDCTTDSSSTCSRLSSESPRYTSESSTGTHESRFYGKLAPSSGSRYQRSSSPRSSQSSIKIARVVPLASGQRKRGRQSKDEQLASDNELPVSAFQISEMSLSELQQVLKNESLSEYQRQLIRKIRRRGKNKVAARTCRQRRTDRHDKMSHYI
COC(=O)c1cc(=O)nc2sccn12 showed an IC50 of 21.9 µM. CN(C)c1ccc(N=CCC(=O)c2ccco2)cc1 was tested, and the IC50 was 70.5 µM. O=C(CC=Nc1cccc(F)c1)c1cccs1 gave an IC50 of 46.7 µM. O=C1/C(=C/c2ccccn2)CCc2ccccc21 showed an IC50 of 78.5 µM. Compound Nc1ccc(/C=C2\C=Cc3ccccc32)cc1 has an IC50 of 45 µM. Cc1ccc2nc(-c3cccnc3)c(NC3CCCCC3)n2c1 was tested, and the IC50 was 23.5 µM. In the case of Cc1ccc(N=CC(C(=O)c2ccco2)C(=O)C(F)(F)F)cc1Cl (stereo unspecified) [2-{[(3-chloro-4-methylphenyl)amino]methylene}-4,4,4-trifluoro-1-(2-furyl)-1,3-butanedione], the IC50 is reported as 14.3 µM. Compound O=C(c1ccco1)C(C=Nc1ccc(Br)cc1)C(=O)C(F)(F)F (stereo unspecified) [2-{[(4-bromophenyl)amino]methylene}-4,4,4-trifluoro-1-(2-furyl)-1,3-butanedione] has an IC50 of 21 µM. O=C(CC=Nc1ccc(F)c(F)c1)c1cccs1 [3-[(3,4-difluorophenyl)amino]-1-(2-thienyl)-2-propen-1-one] gave an IC50 of 11.4 µM. Cc1ccc(N=CCC(=O)c2cccs2)cc1 [3-[(4-methylphenyl)amino]-1-(2-thienyl)-2-propen-1-one] gave an IC50 of 60.3 µM. O=C1C=CC(=O)c2c(O)c(N3CCN(CCOCCO)CC3)c(Br)c(O)c21 [6-bromo-5,8-dihydroxy-7-[4-[2-(2-hydroxyethoxy)ethyl]piperazin-1-yl]naphthalene-1,4-dione;hydrochloride] was tested, and the IC50 was 75.5 µM. COC(=O)[C@]12OC[C@]34[C@H]([C@@H](O)[C@@H]1O)[C@@]1(C)CC(=O)C(=O)C(C)[C@@H]1C[C@H]3OC(=O)[C@H](OC(=O)/C=C(\C)C(C)C)[C@@H]24 (stereo partly drawn) [10,15,16-trihydroxy-9,13-dimethyl-17-methyloxycarbonyl-4,11-dioxo-(1R,2S,3R,6R,8R,13S,14R,15R,16S,17R)-5,18-dioxapentacyclo[12.5.0.01,6.02,17.08,13]nonadec-9-en-3-yl 3,4-dimethyl-(E)-2-pentenoate] was tested, and the IC50 was 75.3 µM. In the case of O=C1N[C@@H]2C(=C[C@H](O)[C@@H](O)[C@H]2O)c2cc3c(c(O)c21)OCO3 [(2S,3R,4S,4aR)-2,3,4,7-Tetrahydroxy-3,4,4a,5-tetrahydro-2H-[1,3]dioxolo[4,5-j]phenanthridin-6-one], the IC50 is reported as 51.4 µM. For O=C(CC=Nc1ccc(F)cc1F)c1ccco1 [(E)-3-(2,4-difluoroanilino)-1-(2-furanyl)-2-propen-1-one], the IC50 was 22.7 µM. With O=C(CC=Nc1ccc(F)c(Cl)c1)c1ccco1 [(E)-3-(3-chloro-4-fluoroanilino)-1-(furan-2-yl)prop-2-en-1-one] the IC50 was 16.7 µM. Work on Cc1ccc(Cl)c(N=CCC(=O)c2ccccc2)c1 [(E)-3-[(2-chloranyl-5-methyl-phenyl)amino]-1-phenyl-prop-2-en-1-one] yielded an IC50 of 68.8 µM. Compound O=C(CC=Nc1ccccc1F)c1cccs1 [(E)-3-[(2-fluorophenyl)amino]-1-thiophen-2-yl-prop-2-en-1-one] has an IC50 of 27.9 µM. Compound O=C(CC=Nc1ccc(F)cc1F)c1cccs1 [(E)-3-[[2,4-bis(fluoranyl)phenyl]amino]-1-thiophen-2-yl-prop-2-en-1-one] has an IC50 of 5.04 µM. In the case of O=C(CC=Nc1ccccn1)c1ccccc1 [(Z)-1-phenyl-3-(pyridin-2-ylamino)prop-2-en-1-one], the IC50 is reported as 53.7 µM. In the case of O=C(C=Cc1ccc(Br)cc1)c1ccc(N=C2NCCCS2)cc1 [MLS000391412], the IC50 is reported as 18.3 µM. For Cc1cc(C)c2ccc3c(C)c(C)[nH]c3c2n1 [MLS000729064], the IC50 was 41.1 µM. CC[C@@H]1CCC[C@@H](O)[C@@H](C)C(=O)O[C@H](C)[C@@H](C)C/C=C(C)\C(OC)=C/C(=O)N(C)C([C@@H](C)CC)C(=O)N(C)[C@@H](C(C)C)C(=O)N(C)[C@@H](COC)C(=O)N2CCC[C@H]2C(=O)N(C)[C@@H](C(C)C)C(=O)N2CCC[C@H]2C(=O)O1 (stereo partly specified) [MLS003235796] ([NMeξIle][NMeV][NMeS](Me)P[NMeV]P; linker N-C via X1) was tested, and the IC50 was 82.4 µM. Work on O=C(/N=C1\[N-]c2ccc(Br)c[n+]2Cc2ccccc21)c1ccc([N+](=O)[O-])cc1[N+](=O)[O-] [N-(2-bromanyl-11H-pyrido[1,2-b][2,4]benzodiazepin-6-ylidene)-2,4-dinitro-benzamide] yielded an IC50 of 2.78 µM. Compound CCOC(=O)c1c(C)oc2c(F)c(F)c(F)c(F)c2c1=O [SMR000041624] has an IC50 of 45.5 µM. In the case of C=c1[nH]n(-c2ccccc2)c(=O)c1=CC=C1N(C)c2ccccc2C1(C)C [SMR000175131], the IC50 is reported as 87.3 µM and 14.4 µM. Compound CC1CCCCN1Cc1c(O)ccc2c(=O)c(-c3nc4ccccc4s3)c(N)oc12 (stereo unspecified) [SMR000218869] has an IC50 of 6.82 µM. O=C(CC=Nc1ccc(Br)cc1)c1cccnc1 [SMR000225438] gave an IC50 of 68.9 µM. O=C(CC=Nc1ccc(Br)cc1F)c1ccco1 [SMR000293180] showed an IC50 of 2.19 µM. O=C1C2=CCC=CC2Oc2ccc(Br)cc21 (stereo unspecified) [SMR000327218] was tested, and the IC50 was > 100 µM.

Same assay, conditions: inactive by the depositor's call
Compound Cc1cccc(C=CC(=O)c2ccc(N=C3NCCCS3)cc2)c1 [(E)-1-[4-(5,6-dihydro-4H-1,3-thiazin-2-ylamino)phenyl]-3-(3-methylphenyl)prop-2-en-1-one] has an IC50 of 79.9 µM. With Cn1ccs/c1=N/C(=O)c1ccc(OC(F)(F)F)cc1 [SMR000589314] the IC50 was 61.9 µM.
